How the values were obtained:
[1] = target: T1, human recombinant HDAC6 (Homo sapiens, UniProt Q9UBN7); test: HDAC6 enzyme activity inhibition assay (HDAC Fluorimetric Drug Discovery Kit); type: biochemical; settings: for HDAC6 selectivity (fold): HDAC6 over HDAC1; for IC50: human recombinant HDAC6, same protocol as HDAC1, read-out: HDAC6
T1 construct: purchased Calbiochem 382180
T1 sequence (Q9UBN7 1-1215): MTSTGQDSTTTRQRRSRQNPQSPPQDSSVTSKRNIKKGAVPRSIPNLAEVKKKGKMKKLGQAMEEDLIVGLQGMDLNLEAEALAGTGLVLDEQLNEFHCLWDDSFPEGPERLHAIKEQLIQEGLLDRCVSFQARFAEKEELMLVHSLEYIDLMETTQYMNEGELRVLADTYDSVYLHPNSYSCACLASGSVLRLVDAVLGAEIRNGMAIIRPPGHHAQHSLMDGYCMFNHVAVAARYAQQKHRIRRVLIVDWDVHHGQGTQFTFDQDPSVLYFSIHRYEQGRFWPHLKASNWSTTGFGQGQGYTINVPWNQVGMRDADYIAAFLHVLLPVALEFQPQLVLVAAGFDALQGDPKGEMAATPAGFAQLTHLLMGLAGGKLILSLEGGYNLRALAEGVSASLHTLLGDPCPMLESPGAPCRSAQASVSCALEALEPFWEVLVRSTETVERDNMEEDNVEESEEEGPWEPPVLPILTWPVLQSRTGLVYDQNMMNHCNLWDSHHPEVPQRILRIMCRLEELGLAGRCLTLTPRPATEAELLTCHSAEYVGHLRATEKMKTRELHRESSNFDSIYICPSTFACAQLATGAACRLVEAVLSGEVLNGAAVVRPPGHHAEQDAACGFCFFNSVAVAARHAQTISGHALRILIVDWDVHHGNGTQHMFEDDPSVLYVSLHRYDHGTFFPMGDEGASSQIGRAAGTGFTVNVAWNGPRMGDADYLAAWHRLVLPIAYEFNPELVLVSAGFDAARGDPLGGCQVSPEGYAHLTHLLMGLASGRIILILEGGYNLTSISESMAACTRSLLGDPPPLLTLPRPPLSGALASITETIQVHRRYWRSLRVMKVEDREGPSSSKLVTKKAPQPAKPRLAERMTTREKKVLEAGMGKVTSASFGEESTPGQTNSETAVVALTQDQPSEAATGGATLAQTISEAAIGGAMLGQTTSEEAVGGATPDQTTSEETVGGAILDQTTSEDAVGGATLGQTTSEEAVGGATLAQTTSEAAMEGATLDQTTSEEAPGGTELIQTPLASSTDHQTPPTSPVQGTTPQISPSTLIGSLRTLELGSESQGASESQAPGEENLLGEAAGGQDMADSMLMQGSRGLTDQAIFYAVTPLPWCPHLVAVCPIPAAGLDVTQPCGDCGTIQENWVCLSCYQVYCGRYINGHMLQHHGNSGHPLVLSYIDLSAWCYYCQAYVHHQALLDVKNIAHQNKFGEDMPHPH
In short: (§1)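 Fluorimetric deacetylase assay: 5-fold serial compound dilutions, 0.3 μg recombinant human enzyme (HDAC1 or HDAC6, same protocol), 10 μM Fluor de Lys-SIRT1 substrate, 60 min at 30 °C. Signal developed 30 min, measured at 360/460 nm; IC50 values derived.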

[2] = target: T2, human recombinant HDAC1 (Homo sapiens, UniProt Q13547); test: HDAC1 enzyme activity inhibition assay (HDAC Fluorimetric Drug Discovery Kit); type: biochemical; settings: human recombinant HDAC1, Fluor de Lys substrate 10 μM, 30° C. 60 minutes
T2 construct: purchased Enzo Life Science BML-SE456
T2 sequence (Q13547 whole entry): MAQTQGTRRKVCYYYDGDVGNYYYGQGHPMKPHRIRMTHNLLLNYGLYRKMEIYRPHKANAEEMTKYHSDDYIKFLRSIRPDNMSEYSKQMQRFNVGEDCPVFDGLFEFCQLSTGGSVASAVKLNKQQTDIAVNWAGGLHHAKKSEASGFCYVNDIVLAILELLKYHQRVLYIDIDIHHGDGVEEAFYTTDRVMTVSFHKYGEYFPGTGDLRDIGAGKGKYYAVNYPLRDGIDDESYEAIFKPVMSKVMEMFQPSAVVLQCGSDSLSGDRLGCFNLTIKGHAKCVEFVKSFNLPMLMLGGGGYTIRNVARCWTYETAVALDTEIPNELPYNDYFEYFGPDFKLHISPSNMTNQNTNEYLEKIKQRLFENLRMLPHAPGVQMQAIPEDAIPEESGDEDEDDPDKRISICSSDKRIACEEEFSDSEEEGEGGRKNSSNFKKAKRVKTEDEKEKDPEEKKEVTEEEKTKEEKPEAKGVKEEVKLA
In short: as §1

Row | HDAC6 selectivity (fold) [1] | IC50 [1] | IC50 [2] | SMILES
1 | 540 fold | 0.053 µM | 28.8 µM | O=C(N1CCOCC1)N(Cc1ccc(-c2nnc(C(F)F)o2)cc1F)c1cccc(Cl)c1 [Compound 21853, N-(3-chlorophenyl)-N-(4-(5-(difluoromethyl)-1,3,4-oxadiazol-2-yl)-2-fluorobenzyl)morpholine-4-carboxamide]
2 | 46 fold | 0.276 µM | 12.7 µM | O=C(N1CCOCC1)N(Cc1ccc(-c2nnc(C(F)(F)F)o2)cc1F)c1cccc(Cl)c1 [Compound 21854, N-(3-chlorophenyl)-N-(2-fluoro-4-(5-(trifluoromethyl)-1,3,4-oxadiazol-2-yl)benzyl)morpholine-4-carboxamide]
3 | 182 fold | 0.131 µM | 23.9 µM | O=C(N1CCOCC1)N(Cc1ccc(-c2nnc(C(F)(F)F)o2)cn1)c1ccc(F)cc1F [Compound 21857, N-(2,4-difluorophenyl)-N-((5-(5-(trifluoromethyl)-1,3,4-oxadiazol-2-yl)pyridin-2-yl)methyl)morpholine-4-carboxamide]
4 | 966 fold | 0.038 µM | 37.1 µM | O=C(N1CCOCC1)N(Cc1ccc(-c2nnc(C(F)F)o2)cc1F)c1ccc(F)cc1F [Compound 21858, N-(4-(5-(difluoromethyl)-1,3,4-oxadiazol-2-yl)-2-fluorobenzyl)-N-(2,4-difluorophenyl)morpholine-4-carboxamide]
5 | 177 fold | 0.133 µM | 23.5 µM | O=C(N1CCOCC1)N(Cc1ccc(-c2nnc(C(F)(F)F)o2)cc1F)c1ccc(F)cc1F [Compound 21859, N-(2,4-difluorophenyl)-N-(2-fluoro-4-(5-(trifluoromethyl)-1,3,4-oxadiazol-2-yl)benzyl)morpholine-4-carboxamide]
6 | 82 fold | 0.22 µM | 18 µM | CCN1CCN(C(=O)N(Cc2ccc(-c3nnc(C(F)(F)F)o3)cc2)c2cccc(Cl)c2)CC1 [Compound 21860, N-(3-Chlorophenyl)-4-ethyl-N-(4-(5-(trifluoromethyl)-1,3,4-oxadiazol-2-yl)benzyl)piperazine-1-carboxamide]
7 | 40 fold | 0.343 µM | 13.7 µM | CCN1CCN(C(=O)N(Cc2ccc(-c3nnc(C(F)(F)F)o3)cc2F)c2cccc(Cl)c2)CC1 [Compound 21861, N-(3-Chlorophenyl)-4-ethyl-N-(2-fluoro-4-(5-(trifluoromethyl)-1,3,4-oxadiazol-2-yl)benzyl)piperazine-1-carboxamide]
8 | 71 fold | 0.472 µM | 33.7 µM | CCN1CCN(C(=O)N(Cc2ccc(-c3nnc(C(F)(F)F)o3)cc2)c2ccc(Cl)cc2)CC1 [Compound 21862, N-(4-Chlorophenyl)-4-ethyl-N-(4-(5-(trifluoromethyl)-1,3,4-oxadiazol-2-yl)benzyl)piperazine-1-carboxamide]
9 | 65 fold | 0.4 µM | 25.8 µM | CCN1CCN(C(=O)N(Cc2ccc(-c3nnc(C(F)(F)F)o3)cc2F)c2ccc(Cl)cc2)CC1 [Compound 21863, N-(4-Chlorophenyl)-4-ethyl-N-(2-fluoro-4-(5-(trifluoromethyl)-1,3,4-oxadiazol-2-yl)benzyl)piperazine-1-carboxamide]
10 | 190 fold | 0.152 µM | 28.8 µM | CCN1CCN(C(=O)N(Cc2ccc(-c3nnc(C(F)(F)F)o3)cn2)c2ccc(Cl)cc2)CC1 [Compound 21864, N-(4-Chlorophenyl)-4-ethyl-N-((5-(5-(trifluoromethyl)-1,3,4-oxadiazol-2-yl)pyridin-2-yl)methyl)piperazine-1-carboxamide]
11 | 174 fold | 0.096 µM | 16.8 µM | CCN1CCN(C(=O)N(Cc2ccc(-c3nnc(C(F)(F)F)o3)cc2)c2cccc(F)c2)CC1 [Compound 21865, 4-Ethyl-N-(3-fluorophenyl)-N-(4-(5-(trifluoromethyl)-1,3,4-oxadiazol-2-yl)benzyl)piperazine-1-carboxamide]
12 | 174 fold | 0.137 µM | 23.9 µM | CCN1CCN(C(=O)N(Cc2ccc(-c3nnc(C(F)(F)F)o3)cc2F)c2cccc(F)c2)CC1 [Compound 21866, 4-Ethyl-N-(2-fluoro-4-(5-(trifluoromethyl)-1,3,4-oxadiazol-2-yl)benzyl)-N-(3-fluorophenyl)piperazine-1-carboxamide]
13 | 489 fold | 0.073 µM | 35.9 µM | CCN1CCN(C(=O)N(Cc2ccc(-c3nnc(C(F)(F)F)o3)cn2)c2cccc(F)c2)CC1 [Compound 21867, 4-Ethyl-N-(3-fluorophenyl)-N-((5-(5-(trifluoromethyl)-1,3,4-oxadiazol-2-yl)pyridin-2-yl)methyl)piperazine-1-carboxamide]
14 | 172 fold | 0.16 µM | 27.5 µM | CCN1CCN(C(=O)N(Cc2ccc(-c3nnc(C(F)(F)F)o3)cc2)c2ccc(F)cc2)CC1 [Compound 21868, 4-Ethyl-N-(4-fluorophenyl)-N-(4-(5-(trifluoromethyl)-1,3,4-oxadiazol-2-yl)benzyl)piperazine-1-carboxamide]
15 | 137 fold | 0.138 µM | 18.9 µM | CCN1CCN(C(=O)N(Cc2ccc(-c3nnc(C(F)(F)F)o3)cc2F)c2ccc(F)cc2)CC1 [Compound 21869, 4-Ethyl-N-(2-fluoro-4-(5-(trifluoromethyl)-1,3,4-oxadiazol-2-yl)benzyl)-N-(4-fluorophenyl)piperazine-1-carboxamide]
16 | 400 fold | 0.113 µM | 45.1 µM | CCN1CCN(C(=O)N(Cc2ccc(-c3nnc(C(F)(F)F)o3)cn2)c2ccc(F)cc2)CC1 [Compound 21870, 4-Ethyl-N-(4-fluorophenyl)-N-((5-(5-(trifluoromethyl)-1,3,4-oxadiazol-2-yl)pyridin-2-yl)methyl)piperazine-1-carboxamide]
17 | 28 fold | 0.321 µM | 9.13 µM | CCN1CCN(C(=O)N(Cc2ccc(-c3nnc(C(F)(F)F)o3)cc2)c2cccc(OC)c2)CC1 [Compound 21871, 4-Ethyl-N-(3-methoxyphenyl)-N-(4-(5-(trifluoromethyl)-1,3,4-oxadiazol-2-yl)benzyl)piperazine-1-carboxamide]
18 | 38 fold | 0.249 µM | 9.43 µM | CCN1CCN(C(=O)N(Cc2ccc(-c3nnc(C(F)(F)F)o3)cc2F)c2cccc(OC)c2)CC1 [Compound 21872, 4-Ethyl-N-(2-fluoro-4-(5-(trifluoromethyl)-1,3,4-oxadiazol-2-yl)benzyl)-N-(3-methoxyphenyl)piperazine-1-carboxamide]
19 | 55 fold | 0.269 µM | 14.9 µM | CCN1CCN(C(=O)N(Cc2ccc(-c3nnc(C(F)(F)F)o3)cn2)c2cccc(OC)c2)CC1 [Compound 21873, 4-Ethyl-N-(3-methoxyphenyl)-N-((5-(5-(trifluoromethyl)-1,3,4-oxadiazol-2-yl)pyridin-2-yl)methyl)piperazine-1-carboxamide]
20 | 20 fold | 0.308 µM | 6.17 µM | CCN1CCN(C(=O)N(Cc2ccc(-c3nnc(C(F)(F)F)o3)cc2)c2ccc(OC)cc2)CC1 [Compound 21874, 4-Ethyl-N-(4-methoxyphenyl)-N-(4-(5-(trifluoromethyl)-1,3,4-oxadiazol-2-yl)benzyl)piperazine-1-carboxamide]
21 | 23 fold | 0.386 µM | 9 µM | CCN1CCN(C(=O)N(Cc2ccc(-c3nnc(C(F)(F)F)o3)cc2F)c2ccc(OC)cc2)CC1 [Compound 21875, 4-Ethyl-N-(2-fluoro-4-(5-(trifluoromethyl)-1,3,4-oxadiazol-2-yl)benzyl)-N-(4-methoxyphenyl)piperazine-1-carboxamide]
